Experimental data taken from US9938261B2, “Heterocyclic compounds and methods of use thereof” (AMBIT BIOSCIENCES CORPORATION, priority 2011, dated 2018).
Structures can show the parent of a compound that is named as a salt. Where two headings read alike, the source gives them in different places.

Target: CSF1R (Homo sapiens, UniProt P07333)
Assay: HEK293 CSF1R phosphorylation MSD assay
Type: cell-based
Set-up: expressed in transfected cells; host or cells: HEK293
Conditions: read-out: HEK293 pCSF1R M-CSF MSD:IC50
In short: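 Ligand-induced CSF1R autophosphorylation was measured by MSD sandwich assay: CSF1R-FKBP from lysates captured via FK506, anti-phosphotyrosine readout. Cells were exposed to compound for 2 h (9-point, half-log, 0.5% DMSO) before 5 min 50 ng/mL M-CSF. Reported IC50 is the mean of duplicate-plate IC50s relative to DMSO control.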

[1] = 2 h compound, human M-CSF 50 ng/mL for 5 min
[2] = HEK293 cells, M-CSF stimulated CSF1R phosphorylation, MSD

Sequence of CSF1R (P07333 20-972): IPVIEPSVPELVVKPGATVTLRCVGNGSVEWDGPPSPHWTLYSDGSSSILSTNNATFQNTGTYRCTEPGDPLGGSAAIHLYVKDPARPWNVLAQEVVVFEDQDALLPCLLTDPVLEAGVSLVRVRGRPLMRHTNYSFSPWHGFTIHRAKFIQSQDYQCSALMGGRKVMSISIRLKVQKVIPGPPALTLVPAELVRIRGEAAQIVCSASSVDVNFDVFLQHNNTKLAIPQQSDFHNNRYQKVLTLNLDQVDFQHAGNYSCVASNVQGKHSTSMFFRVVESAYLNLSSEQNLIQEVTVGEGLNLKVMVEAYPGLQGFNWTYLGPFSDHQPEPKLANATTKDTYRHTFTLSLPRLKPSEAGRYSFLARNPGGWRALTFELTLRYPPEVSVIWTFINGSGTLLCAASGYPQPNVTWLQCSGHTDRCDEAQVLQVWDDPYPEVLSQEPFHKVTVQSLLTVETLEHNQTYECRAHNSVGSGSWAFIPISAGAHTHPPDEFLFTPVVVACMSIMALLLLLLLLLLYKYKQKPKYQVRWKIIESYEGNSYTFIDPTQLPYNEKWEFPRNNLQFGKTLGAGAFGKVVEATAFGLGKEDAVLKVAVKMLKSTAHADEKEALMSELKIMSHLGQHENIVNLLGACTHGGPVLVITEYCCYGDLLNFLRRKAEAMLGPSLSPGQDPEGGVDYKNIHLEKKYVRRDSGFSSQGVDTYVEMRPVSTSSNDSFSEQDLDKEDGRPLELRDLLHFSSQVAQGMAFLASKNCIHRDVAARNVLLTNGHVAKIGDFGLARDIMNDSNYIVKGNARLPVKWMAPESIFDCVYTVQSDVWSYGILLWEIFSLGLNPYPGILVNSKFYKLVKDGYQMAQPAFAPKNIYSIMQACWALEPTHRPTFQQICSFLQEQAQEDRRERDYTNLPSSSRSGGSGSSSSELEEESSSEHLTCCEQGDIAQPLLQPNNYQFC

| IC50 [1] [µM] | IC50 [2] [µM] | Compound |
| --- | --- | --- |
| 0.05 to 0.2 |  | Cn1cc(-c2cn(Cc3ccc4nc(N[C@@H]5CCCC[C@H]5O)oc4c3)cn2)cn1 [Example 77, (1R,2R)-2-((6-((4-(1-methyl-1H-pyrazol-4-yl)-1H-imidazol-1-yl)methyl)benzo[d]oxazol-2-yl)amino)cyclohexanol] |
| 0.05 to 0.2 |  | Cn1cc(-c2cn(Cc3ccc4nc(N[C@@H]5CCCC[C@H]5O)sc4c3)cn2)cn1 [Example 36, (1R,2R)-2-((6-((4-(1-methyl-1H-pyrazol-4-yl)-1H-imidazol-1-yl)methyl)benzo[d]thiazol-2-yl)amino)cyclohexanol] |
| 0.05 to 0.2 |  | OC1(CNc2nc3ccc(Cn4cnc5cccnc54)cc3s2)CCCCC1 [Example 75, 1-(((6-((3H-imidazo[4,5-b]pyridin-3-yl)methyl)benzo[d]thiazol-2-yl)amino)methyl)cyclohexanol] |
| 0.05 to 0.2 |  | O[C@@H]1Cc2ccccc2[C@H]1Nc1nc2ccc(Cn3cnc4cccnc43)cc2o1 [Example 57, (1R,2R)-1-((6-((3H-imidazo[4,5-b]pyridin-3-yl)methyl)benzo[d]oxazol-2-yl)amino)-2,3-dihydro-1H-inden-2-ol] |
|  | > 0.5 | Nc1nccn(Cc2ccc3nc(N[C@@H]4CCCC[C@H]4O)sc3c2)c1=O [Example 220, 3-amino-1-((2-(((1R,2R)-2-hydroxycyclohexyl)amino)benzo[d]thiazol-6-yl)methyl)pyrazin-2(1H)-one acetate salt] |
|  | 0.2 to 0.5 | O=C1CCCCN1c1ccc2c(c1)ncn2Cc1ccc2nc(N[C@@H]3CCCC[C@H]3O)sc2c1 [Example 210, 1-(1-((2-(((1R,2R)-2-hydroxycyclohexyl)amino)benzo[d]thiazol-6-yl)methyl)-1H-benzo[d]imidazol-5-yl)piperidin-2-one] |
| 0.05 to 0.2 |  | COc1cc2c(cc1C#N)ncn2Cc1ccc2nc(N[C@@H]3CCCC[C@H]3O)sc2c1 [Example 65, 1-((2-(((1R,2R)-2-hydroxycyclohexyl)amino)benzo[d]thiazol-6-yl)methyl)-6-methoxy-1H-benzo[d]imidazole-5-carbonitrile] |
| 0.05 to 0.2 |  | O[C@@H]1CCCC[C@H]1Nc1nc2ccc(Cn3cnc4cncnc43)cc2s1 [Example 48, (1R,2R)-2-((6-((9H-purin-9-yl)methyl)benzo[d]thiazol-2-yl)amino)cyclohexanol] |
|  | 0.05 to 0.2 | CC(=NO)c1ccn2c(Cc3ccc4nc(N[C@@H]5CCCC[C@H]5O)sc4c3)cnc2c1 [Example 202, 1-(3-((2-(((1R,2R)-2-hydroxycyclohexyl)amino)benzo[d]thiazol-6-yl)methyl)imidazo[1,2-a]pyridin-7-yl)ethanone oxime] |
| 0.05 to 0.2 |  | OC[C@@H](Nc1nc2ccc(Cn3cnc4cccnc43)cc2s1)C1CCCCC1 [Example 63, (S)-2-((6-((3H-imidazo[4,5-b]pyridin-3-yl)methyl)benzo[d]thiazol-2-yl)amino)-2-cyclohexylethanol] |
|  | 0.2 to 0.5 | Fc1cnc2c(c1)ncn2Cc1ccc2nc(N[C@@H]3CCCC[C@H]3Cl)sc2c1 [Example 198, N-((1R,2R)-2-chlorocyclohexyl)-6-((6-fluoro-3H-imidazo[4,5-b]pyridin-3-yl)methyl)benzo[d]thiazol-2-amine] |
|  | > 0.5 | CS(=O)(=O)c1ccc2ncn(Cc3ccc4nc(N[C@@H]5CCCC[C@H]5O)sc4c3)c2n1 [Example 106, (1R,2R)-2-((6-((5-(methylsulfonyl)-3H-imidazo[4,5-b]pyridin-3-yl)methyl)benzo[d]thiazol-2-yl)amino)cyclohexanol] |
| ≤ 0.05 |  | COc1cc2ncn(Cc3ccc4nc(N[C@@H]5CCCC[C@H]5O)sc4c3)c2cc1C#N [Example 53, 1-((2-(((1R,2R)-2-hydroxycyclohexyl)amino)benzo[d]thiazol-6-yl)methyl)-5-methoxy-1H-benzo[d]imidazole-6-carbonitrile] |
| 0.2 to 0.5 |  | O[C@@H]1CCCC[C@H]1Nc1nc2ccc(Cc3cnc4ccccn34)cc2s1 [Example 38, (1R,2R)-2-((6-(imidazo[1,2-a]pyridin-3-ylmethyl)benzo[d]thiazol-2-yl)amino)cyclohexanol] |
| ≤ 0.05 |  | O[C@@H]1CCCC[C@H]1Nc1nc2ccc(Cn3cnc4cc(-c5cccnc5)cnc43)cc2s1 [Example 40, (1R,2R)-2-((6-((6-(pyridin-3-yl)-3H-imidazo[4,5-b]pyridin-3-yl)methyl)benzo[d]thiazol-2-yl)amino)cyclohexanol] |
|  | 0.05 to 0.2 | CC(=O)c1ccn2c(Cc3ccc4nc(N[C@@H]5CCCC[C@H]5O)sc4c3)cnc2c1 [Example 200, 1-(3-((2-(((1R,2R)-2-hydroxycyclohexyl)amino)benzo[d]thiazol-6-yl)methyl)imidazo[1,2-a]pyridin-7-yl)ethanone] |

| IC50 [1] [µM] | IC50 [2] [µM] | Compound |
| --- | --- | --- |
| 0.2 to 0.5 |  | COc1cc2c(cc1Br)ncn2Cc1ccc2nc(N[C@@H]3c4ccccc4C[C@H]3O)sc2c1 [Example 49, (1R,2R)-1-((6-((5-bromo-6-methoxy-1H-benzo[d]imidazol-1-yl)methyl)benzo[d]thiazol-2-yl)amino)-2,3-dihydro-1H-inden-2-ol] |
|  | ≤ 0.05 | O[C@@H]1CCCC[C@H]1Nc1nc2ccc(Cc3cnc4cc(-n5ccnc5)ccn34)cc2s1 [Example 214, (1R,2R)-2-((6-((7-(1H-imidazol-1-yl)imidazo[1,2-a]pyridin-3-yl)methyl)benzo[d]thiazol-2-yl)amino)cyclohexanol] |
| ≤ 0.05 |  | CSc1cnc2c(c1)ncn2Cc1ccc2nc(N[C@@H]3CCCC[C@H]3O)sc2c1 [Example 85, (1R,2R)-2-((6-((6-(methylthio)-3H-imidazo[4,5-b]pyridin-3-yl)methyl)benzo[d]thiazol-2-yl)amino)cyclohexanol] |
| 0.05 to 0.2 |  | N#Cc1cnc2c(c1)ncn2Cc1ccc2nc(N[C@@H]3CCCC[C@H]3O)sc2c1 [Example 43, 3-((2-(((1R,2R)-2-hydroxycyclohexyl)amino)benzo[d]thiazol-6-yl)methyl)-3H-imidazo[4,5-b]pyridine-6-carbonitrile] |
| ≤ 0.05 |  | O[C@@H]1CCCC[C@H]1Nc1nc2ccc(Cn3cnc4cc(Br)cnc43)cc2o1 [Example 61, (1R,2R)-2-((6-((6-bromo-3H-imidazo[4,5-b]pyridin-3-yl)methyl)benzo[d]oxazol-2-yl)amino)cyclohexanol] |
|  | 0.05 to 0.2 | CON=C(C)c1ccn2c(Cc3ccc4nc(N[C@@H]5CCCC[C@H]5O)sc4c3)cnc2c1 [Example 204, 1-(3-((2-(((1R,2R)-2-hydroxycyclohexyl)amino)benzo[d]thiazol-6-yl)methyl)imidazo[1,2-a]pyridin-7-yl)ethanone O-methyl oxime] |
|  | ≤ 0.05 | N#CCOc1ccc2c(c1)ncn2Cc1ccc2nc(N[C@@H]3CCCC[C@H]3O)sc2c1 [Example 196, 2-((1-((2-(((1R,2R)-2-hydroxycyclohexyl)amino)benzo[d]thiazol-6-yl)methyl)-1H-benzo[d]imidazol-5-yl)oxy)acetonitrile] |
| ≤ 0.05 |  | OCc1cnc2c(c1)ncn2Cc1ccc2nc(N[C@@H]3CCCC[C@H]3O)sc2c1 [Example 84, (1R,2R)-2-((6-((6-(hydroxymethyl)-3H-imidazo[4,5-b]pyridin-3-yl)methyl)benzo[d]thiazol-2-yl)amino)cyclohexanol] |
| ≤ 0.05 |  | O[C@@H]1Cc2ccccc2[C@H]1Nc1nc2ccc(Cn3cnc4ccc(Br)nc43)cc2s1 [Example 80, (1R,2R)-1-((6-((5-bromo-3H-imidazo[4,5-b]pyridin-3-yl)methyl)benzo[d]thiazol-2-yl)amino)-2,3-dihydro-1H-inden-2-ol] |
| ≤ 0.05 |  | CSCc1cnc2c(c1)ncn2Cc1ccc2nc(N[C@@H]3CCCC[C@H]3O)sc2c1 [Example 86, (1R,2R)-2-((6-((6-((methylthio)methyl)-3H-imidazo[4,5-b]pyridin-3-yl)methyl)benzo[d]thiazol-2-yl)amino)cyclohexanol] |
| 0.05 to 0.2 |  | O[C@@H]1Cc2ccccc2[C@H]1Nc1nc2ccc(Cn3cnc4cccnc43)cc2s1 [Example 46, (1R,2R)-1-((6-((3H-imidazo[4,5-b]pyridin-3-yl)methyl)benzo[d]thiazol-2-yl)amino)-2,3-dihydro-1H-inden-2-ol] |
| 0.2 to 0.5 |  | O[C@@H]1CCCC[C@H]1Nc1nc2ccc(Cn3cnc4cc(CN5CCOCC5)cnc43)cc2s1 [Example 82, (1R,2R)-2-((6-((6-(morpholinomethyl)-3H-imidazo[4,5-b]pyridin-3-yl)methyl)benzo[d]thiazol-2-yl)amino)cyclohexanol] |
| ≤ 0.05 |  | O[C@@H]1CCCC[C@H]1Nc1nc2ccc(Cn3cnc4cc(C5CC5)cnc43)cc2s1 [Example 45, (1R,2R)-2-((6-((6-cyclopropyl-3H-imidazo[4,5-b]pyridin-3-yl)methyl)benzo[d]thiazol-2-yl)amino)cyclohexanol] |
| 0.05 to 0.2 |  | OC[C@@H]1CCCC[C@H]1Nc1nc2ccc(Cn3cnc4cccnc43)cc2s1 [Example 66, ((1R,2R)-2-((6-((3H-imidazo[4,5-b]pyridin-3-yl)methyl)benzo[d]thiazol-2-yl)amino)cyclohexyl)methanol] |
|  | 0.05 to 0.2 | O[C@@H]1CCCC[C@H]1Nc1nc2ccc(Cn3cnc4cc(C(F)(F)F)cnc43)cc2s1 [Example 212, (1R,2R)-2-((6-((6-(trifluoromethyl)-3H-imidazo[4,5-b]pyridin-3-yl)methyl)benzo[d]thiazol-2-yl)amino)cyclohexanol] |
|  | 0.05 to 0.2 | O[C@@H]1CCCC[C@H]1Nc1nc2ccc(Cn3cnc4ccc(Br)cc43)cc2s1 [Example 107, (1R,2R)-2-((6-((6-bromo-1H-benzo[d]imidazol-1-yl)methyl)benzo[d]thiazol-2-yl)amino)cyclohexanol] |

| Compound | IC50 [1] [µM] | IC50 [2] [µM] |
| --- | --- | --- |
| either (1S,2R)-2-((6-((3H-imidazo[4,5-b]pyridin-3-yl)methyl)benzo[d]thiazol-2-yl)amino)-1-methylcyclohexanol or (1R,2R)-2-((6-((3H-imidazo[4,5-b]pyridin-3-yl)methyl)benzo[d]thiazol-2-yl)amino)-1-methylcyclohexanol [Example 59] | 0.05 to 0.2 |  |
